The Deep4Chem optical property database
Where “and” joins values, the source holds several entries; their conditions need not be identical. Equal entries are not always repeated.

Assay: solvent given as SMILES

Compound: COc1ccc(-c2cc(-c3ccc(OC)cc3)c3c(N)nc(N4CCCC4)c(C#N)c3n2)cc1
- emission maximum (in CC#N): 516 nm
- emission maximum (in CC(C)=O): 513 nm
- emission maximum (in CC(C)O): 507 nm
- emission maximum (in CO): 515 nm
- emission maximum (in ClC(Cl)Cl): 500 nm
- emission maximum (in ClCCl): 506 nm
- emission maximum (in c1ccccc1): 502 nm

Compound: c1ccc2c(-c3ccc4sc5ccccc5c4c3)c3ccccc3cc2c1
- emission maximum (in C1CCCCC1): 399.14 nm
- emission maximum (in CC#N): 404.15 nm
- emission maximum (in ClCCl): 405.52 nm

Compound: COc1ccc(C2=C(c3ccc(F)cc3)C(c3ccccc3)=[N+]3C2=Nc2c(-c4ccc(OC)cc4)c(-c4ccc(F)cc4)c(-c4ccccc4)n2[B-]3(F)F)cc1
- emission maximum (in Cc1ccccc1): 692 nm

Compound: Cc1cccc2nc(-c3cc(=O)c(OCc4ccccc4)co3)c(NC3CCCCC3)n12
- emission maximum (in ClCCl): 476 nm

Compound: CC[n+]1c(-c2ccccc2)c2cc(NC(N)=O)ccc2c2ccc(NC(N)=O)cc21
- emission maximum (in O): 520 nm

Compound: Cc1ccsc1-c1cc2c3cc(-c4sccc4C)c4nc(C(F)(F)C(F)(F)C(F)(F)F)nc5c(-c6sccc6C)cc(c6cc(-c7sccc7C)c7nc(C(F)(F)C(F)(F)C(F)(F)F)nc1c7c26)c3c45
- emission maximum (in C1CCOC1): 627 nm

Compound: COc1cc2c(cc1-c1ccc(C)cc1)Cc1c3c(c4c(c1-2)-c1cc(OC)c(-c2ccc(C)cc2)cc1C4)C(=O)N(CCC(C)C)C3=O
- emission maximum (in C1CCOC1): 476 nm

Compound: c1ccc(-c2nc(-c3ccccc3)nc(-n3c4ccccc4c4cccc(-n5c6ccccc6c6ccccc65)c43)n2)cc1
- emission maximum (in C1CCOC1): 477.86 nm
- emission maximum (in Cc1ccccc1): 459.26 nm

Compound: CC(C)(C)NC(=O)c1cc2ccc3cccc4ccc(c1C(=O)NC(C)(C)C)c2c34
- emission maximum (in ClC(Cl)Cl): 392 nm

Compound: C[Si]1(C)O[Si](C)(C)c2cc3nc4ccccc4c(-c4ccccc4)c3cc2[Si](C)(C)O1
- emission maximum (in ClCCl): 501 nm

Compound: Cc1ccc(N2C(c3ccccc3NS(=O)(=O)c3ccc(C)cc3)=NC(c3ccccc3)C2c2ccccc2)cc1 (configuration not stated)
- emission maximum (in Cc1ccccc1): 375 nm

Compound: CN(C)c1ccc(/C=C/C=C/C2=NC3C(=O)NC(N)=NC3N2[C@H]2C[C@H](O)[C@@H](CO)O2)cc1 (some centres not stated)
- emission maximum (in C1COCCO1): 429 nm
- emission maximum (in CC#N): 443 nm
- emission maximum (in CO): 438 nm

Compound: COCCN(CCOC)c1ccc(/C=C/c2sc3c4nc(C)sc4ccc3[n+]2C)cc1
- emission maximum (in CO): 601 nm
- emission maximum (in ClC(Cl)Cl): 601 nm

Compound: c1ccc(N(c2ccccc2)c2ccc(-c3ccc(-c4cc(-c5ccccn5)nc(-c5ccccn5)c4)cc3)cc2)cc1
- emission maximum (in ClCCl): 489 nm

Compound: CC1=[N+]2C(=C(c3ccc(C=O)cc3)c3ccc(C)n3[B-]2(F)F)C=C1c1cc2n(c1)[B-](F)(F)[N+]1=CC=CC1=C2c1c(C)cc(C)cc1C
- emission maximum (in C1CCCCC1): 657 nm
- emission maximum (in CCOC(C)=O): 669 nm

Compound: Cc1cccc(C)c1Nc1ccc(/C=C/c2cccnc2)cc1
- emission maximum (in CC#N): 450 nm
- emission maximum (in CCCCCC): 383 nm

Compound: COc1ccc([Si](C)(C)C)c2ccccc12
- emission maximum (in C1CCCCC1): 327 nm

Compound: Cc1c2c(c(C)c3ccccc13)C1=CC3Nc4ccccc4NC3C=C12 (configuration not stated)
- emission maximum (in ClC(Cl)Cl): 502 nm

Compound: Cc1ccc(S(=O)(=O)/N=c2\oc3cccc4c5c(-c6ccccc6)oc6cccc(c(c2-c2ccccc2)c34)c65)cc1
- emission maximum (in ClC(Cl)Cl): 560 nm

Compound: CC1(C)C2=C3C=C4C5=[N+](CCC4OC3CCN2c2ccc(CC(=O)NCCCCCCO)cc21)c1ccc(S(=O)(=O)[O-])cc1C5(C)C (configuration not stated)
- emission maximum (in O): 572 nm

Compound: c1ccc2cc3ccccc3cc2c1
- emission maximum (in C1CCCCC1): 400 nm and 407.66 nm
- emission maximum (in C1CCOC1): 397 nm
- emission maximum (in CO): 400 nm

Compound: CCCCCCc1cc2c3c(c1)c(=C1c4ccccc4S(=O)(=O)c4ccccc41)c1cc(CCCCCC)cc4c1N3c1c(cc(CCCCCC)cc1c4=C1c3ccccc3S(=O)(=O)c3ccccc31)c2=C1c2ccccc2S(=O)(=O)c2ccccc21
- emission maximum (in ClCCl): 528 nm

Compound: Cc1cc(-c2ccc(-c3ccccc3)cc2)nc(-c2ccc(-n3c4ccccc4c4ccccc43)cc2)n1
- emission maximum (in C1CCOC1): 418 nm
- emission maximum (in CN(C)C=O): 474 nm
- emission maximum (in Cc1ccccc1): 386 nm
- emission maximum (in ClC(Cl)Cl): 416 nm

Compound: COc1cc(OC)c2c(c1)C(=O)c1ccc(OC)cc1-2
- emission maximum (in C1CCCCC1): 537 nm
- emission maximum (in CC#N): 578 nm

Compound: CCN(CC)c1ccc2c(c1)oc(=O)c1c(=O)oc3cc(C#Cc4ccc(C#N)cc4)ccc3c12
- emission maximum (in CS(C)=O): 625 nm
- emission maximum (in ClCCl): 572 nm

Compound: CCCCCCCCC1(CCCCCCCC)c2cc(-c3ccccc3)ccc2-c2ccc(-c3ccccc3)cc21
- emission maximum (in ClC(Cl)Cl): 361 nm

Compound: COc1ccc(-c2nc3ccccc3nc2/C=C/N2CCCC2)s1
- emission maximum (in CC#N): 583.94 nm

Compound: O=c1c2cccc3cccc(c32)c2nc3ccccc3n12
- emission maximum (in ClCCl): 499 nm

Compound: CC1(C)c2cc(-c3ccc4ccc5cccc6ccc3c4c56)ccc2-c2ccc(-c3ccc4ccc5cccc6ccc3c4c56)cc21
- emission maximum (in ClCCl): 421 nm

Compound: CCN(CC)c1ccc(C=Cc2nc3nc4ccccc4nc3s2)cc1
- emission maximum (in CO): 630 nm

Compound: CC(C)(C)c1ccc(-c2nnc(-c3c(-n4c5ccccc5c5ccccc54)c(-n4c5ccccc5c5ccccc54)c(-c4nnc(-c5ccc(C(C)(C)C)cc5)o4)c(-n4c5ccccc5c5ccccc54)c3-n3c4ccccc4c4ccccc43)o2)cc1
- emission maximum (in Cc1ccccc1): 569 nm
- emission maximum (in c1cc(-n2c3ccccc3c3ccccc32)nc(-n2c3ccccc3c3ccccc32)c1): 527 nm

Compound: Cc1ccc(/C=N/c2cc(C(C)C)c(O)cc2C)cc1
- emission maximum (in C1CCCCC1): 400 nm
- emission maximum (in C1CCOC1): 410 nm
- emission maximum (in C1COCCO1): 408 nm
- emission maximum (in CC#N): 415 nm
- emission maximum (in CC(C)(C)O): 412 nm
- emission maximum (in CC(C)O): 416 nm
- emission maximum (in CCCCCC): 402 nm
- emission maximum (in CCCCO): 417 nm
- emission maximum (in CCO): 417 nm
- emission maximum (in CCOC(C)=O): 409 nm
- emission maximum (in CN(C)C=O): 414 nm
- emission maximum (in CO): 422 nm
- emission maximum (in CS(C)=O): 417 nm
- emission maximum (in ClC(Cl)Cl): 415 nm
- emission maximum (in ClCCl): 415 nm
- emission maximum (in O): 441 nm
- emission maximum (in OCCO): 425 nm

Compound: N#Cc1c(N2CCCCC2)cc(-c2ccc3ccc4cccc5ccc2c3c45)c2c1C(=O)c1ccccc1-2
- emission maximum (in C1CCOC1): 473 nm

Compound: CCOC(=O)c1c2c3c(ccc(Cl)c3c3cc4ccccc4cc13)N(C)C2=O
- emission maximum (in CC#N): 414 nm

Compound: Cc1c(C(=O)c2ccc(C(F)(F)F)cc2)c2ccc3cccc4c5cccc6ccc1c(c65)c2c34
- emission maximum (in ClCCl): 545 nm

Compound: CC(C)(C)c1ccc(-c2ccc(C(C)(C)C)cc2)cc1
- emission maximum (in C1CCCCC1): 312 nm

Compound: CCCCCCN1C(=O)c2cccc3c(-c4ccc(-c5cc(-c6ccc(OC)cc6)n(-c6ccccc6)n5)s4)ccc(c23)C1=O
- emission maximum (in ClCCl): 521 nm

Compound: Cc1ccc(N(c2ccc(C)cc2)c2ccc(-c3cc4c(cc(-c5ccc(N(c6ccc(C)cc6)c6ccc(C)cc6)cc5)c5nsnc54)c4nsnc34)cc2)cc1
- emission maximum (in Cc1ccccc1): 659 nm
- emission maximum (in ClCCl): 683 nm

Compound: CCOC(=O)c1sc(-c2ccc(-c3cc(C4CC4)c(C(=O)OCC)s3)s2)cc1C1CC1
- emission maximum (in ClCCl): 448 nm

Compound: N#Cc1c(-n2c3ccccc3c3cc(I)ccc32)c(-n2c3ccccc3c3cc(I)ccc32)c(C#N)c(-n2c3ccccc3c3cc(I)ccc32)c1-n1c2ccccc2c2cc(I)ccc21
- emission maximum (in Cc1ccccc1): 548 nm

Compound: F[B-]1(F)Oc2c(ccc3c4c(ccc23)C=[N+](c2ccccc2)[B-](F)(F)O4)C=[N+]1c1ccccc1
- emission maximum (in Cc1ccccc1): 538 nm
- emission maximum (in ClCCl): 533 nm

Compound: c1ccc2c(-c3c4ccccc4c(-c4ccc(-n5c6ccccc6c6ccccc65)cc4)c4ccccc34)cccc2c1
- emission maximum (in ClCCl): 421 nm
